Measured values taken from US10682371B2, “Small molecule conjugates specifically activated in tumor microenvironment for targeting and use thereof” (priority 2014, dated 2020).
“Also recorded” adds a separate entry of the source.

Tests used:
[1] = molecular target: T1, asparagine endopeptidase (Homo sapiens, UniProt Q99538)
T1 sequence (Q99538 26-323 limits assumed): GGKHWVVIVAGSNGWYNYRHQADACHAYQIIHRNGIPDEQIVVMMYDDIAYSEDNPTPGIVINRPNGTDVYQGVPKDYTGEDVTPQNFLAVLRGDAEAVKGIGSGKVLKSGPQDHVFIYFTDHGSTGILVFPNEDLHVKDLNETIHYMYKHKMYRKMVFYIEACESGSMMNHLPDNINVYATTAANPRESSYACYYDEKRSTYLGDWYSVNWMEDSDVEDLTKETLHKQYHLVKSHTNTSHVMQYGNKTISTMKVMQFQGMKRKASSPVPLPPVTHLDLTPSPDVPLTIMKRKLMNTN
Method: Reduction of reactant and increase of product were detected by HPLC, thereby comparing the activation efficiency of these compounds.
When R1 is 2-(2-Methoxyethoxy)Acetyl, and R3 is Ala, activation study and efficacy study were carried out by using compounds having different cleavable linker. The study methods are identical to those in Examples 10, 11 and 12. The in vitro activation efficiency was tested by asparagine endopeptidase and the tumor inhibition rate was tested by using human breast cancer MDA-MB231 model.

[2] = test system: Mice; assay: Toxicity of Legutaxel injected at tail vein weekly for 3 times, observed over 21 days; assay type: in vivo
Method: Mice were injected with Legutaxel at tail vein weekly for 3 times. […] Therefore, Legutaxel's dose could at least reach 160 mg/kg/day during treatment.

[3] = test system: tumor-derived immunosuppressive T cells (T reg: CD4+, CD25+, Foxp3+); CD8 T cells; assay: Immunological stimulation test in mice receiving tumor treatment (T reg, CD8 T cells); assay type: in vivo
Description: We further studied the immunological stimulation property of Legutaxel. […] On the contrary, the index for tumor-derived immunosuppressive T cells in treatment group by Legutaxel decreased due to targeted chemotherapy (see panels in FIGS. 3A and 3B).

[4] = test system: Human prostate cancer PC-3 cells; assay: Tumor treatment in nude mice, PC-3 model (Example 51); assay type: in vivo
Method: 1) Human prostate cancer PC-3 cells were purchased from American type culture collection (ATCC) and identified according the specification provided by ATCC. Cells were cultivated in DMEM culture solution containing 10% fetal bovine serum at 37° C. and 5% CO2. The cells were passaged for every three days and cells within the 15th passage were used.
2) Production of tumor. 5×10^6PC-3 cells were subcutaneously injected to the back of the nude mice. Mice were randomly grouped after the tumor reached at least 100 mm^3. Then treatment began and the day on which the treatment began was day 1.
According to the clinical application of D1, D2, D3 and D4, drugs were intravenously injected (IV). […]. The control group was administered by physiological saline. Drugs were administered once weekly for four weeks.

[5] = Table 48, nude mice, PC-3, IV once weekly for four weeks, D1-D4 25 mg/kg, Docetaxel […], Day 10
[6] = Table 48, nude mice, PC-3, IV once weekly for four weeks, D1-D4 25 mg/kg, Docetaxel […], Day 24

Question: Which “Activation by asparagine endopeptidase, in words” value [1] does the source give for “4-N—(N—(N—(N-(6-maleimido caproyl)-L-alanyl)-L-alanyl)-L-asparaginyl)-amino benzyl alcohol-MMAE-carbamate [Compound S6]” here?
Answer: Its value is “cannot be activated; also recorded: not activated”.

Question: What about the Cleaving efficiency ([1]; different cleavable linkers of MMAE and Doxorubicin, in vitro activation by asparagine endopeptidase) of the same molecule?
Answer: Its Cleaving efficiency is 25.6%.

Question: Which results are given for `COCCOCC(=O)N[C@H](C)C(=O)N[C@H](C)C(=O)N[C@H](CC(N)=O)C(=O)Nc1ccc(COC(=O)OC(C(=O)OC2C[C@@]3(O)C(OC(=O)c4ccccc4)[C@@H]4C5(OC(C)=O)COC5C[C@H](O)[C@@]4(C)C(=O)[C@H](OC(C)=O)C(=C2C)C3(C)C)[C@@H](NC(=O)c2ccccc2)c2ccccc2)cc1` (stereo in doubt) [S1′, 2-(2-methoxyethoxy) acetylamino-L-Ala-L-Ala-L-Asn-p-amino-benzyl-paclitaxel]?
Answer: Dose that can be reached during treatment ([2]; tail vein weekly for 3 times): ≥ 160 mg/kg/day; Death in toxicity experiments ([2]; tail vein weekly for 3 times, 140, 150 and 160 mg/kg/day, observed over 21 days): no death were observed; Toxic CD8 T cells permeated from the tumor tissue ([3]; lung cancer treatment model): more toxic CD8 T cells; Index for tumor-derived immunosuppressive T cells (T reg: CD4+, CD25+, Foxp3+) ([3]; mice receiving tumor treatment): decreased

Question: Which “Size of tumor (mm^3) Day 10” value [4, 5] does the source give for `COCCOCC(=O)N[C@H](C)C(=O)N[C@H](C)C(=O)N[C@H](CC(N)=O)C(=O)Nc1ccc(COC(=O)OC(C(=O)OC2C[C@@]3(O)[C@@H](OC(=O)c4ccccc4)[C@H]4[C@](C)(C(=O)[C@H](O)C(=C2C)C3(C)C)[C@@H](O)CC2OC[C@]24OC(C)=O)[C@@H](NC(=O)OC(C)(C)C)c2ccccc2)cc1` (stereo partly drawn) [Compound D1, 2-(2-methoxyethoxy) acetyl-L-Ala-L-Ala-L-Asn-4-amino benzyl-Docetaxel] here?
Answer: The value was 86.45 ± 26.42 mm^3.

Question: What about the “inhibitory rate on tumor Day 10” value [4, 5] of the same molecule?
Answer: The value was 75.0.

Question: And the “Size of tumor (mm^3) Day 24” value [4, 6]?
Answer: The value was 143.34 ± 44.42 mm^3.

Question: What about the “inhibitory rate on tumor Day 24” value [4, 6] of the same molecule?
Answer: The value was 80.5.

Question: And the “Inhibition on tumor growth, in words” value ([4]; compared with Docetaxel group and control group)?
Answer: The value was “greatly improved”.
